Literature values, collected in paper PMC3604136 (Nature chemical biology, 2013).

System: HIF-1 and HIF-2

**Q.** With acriflavine as the substance, how does the HIF isoform inhibition read?
**A.** The HIF isoform inhibition was “inhibits both HIF-1 and HIF-2”.
